Source: PMC8689140 (Frontiers in Pharmacology, 2021)

Tests used:
[1] = Bidirectional permeability in Caco-2 cell monolayers; assay type: in vitro ADME; conditions: human, Caco-2, with or without verapamil 30 μM (range covers both); 2.0, 10.0, and 100 µM, presence or absence of verapamil 30 μM, 2 h; read-out: mean Papp (AP→BL)
Protocol: (§1) Caco-2 cells (ATCC, United States) were seeded on a 96-multiwell insert system (Corning, United States) at a density of 1.0 × 10^5 cells/cm^2. After about 24 days of culture, […] permeability was measured to evaluate the integrity of Caco-2 cell monolayers, and the percent of lucifer yellow in basolateral well which should be less than 1%. Before initiating the transport studies, the cell monolayers were washed with warm HBSS. […] Aliquots from the receiver chamber were collected at 2 h after incubation and stored at −20°C until analysis via LC-MS/MS. All experiments were conducted in triplicate. Permeability coefficient (Papp) and the efflux ratio (ER = P app (BL→AP)/P app (AP→BL)) were calculated.

[2] = tested on: Caco-2 cell monolayers; assay: as above; assay type: in vitro ADME
Protocol: as §1

[3] = Metabolite identification in dog plasma after oral dose; assay type: in vivo; conditions: dog plasma after oral administration
Protocol: Male beagle dogs were randomly divided into four groups. […] The dogs were fasted for 12 h before treatment and 4 h after treatment, but they were granted free access to water. Blood was collected from the vein before administration and 0.083 (only for injection groups), 0.25, 0.5, 1, 2, 3, 4, 6, 8, 12 and 24 h, and placed it in heparinized tubes, and centrifuged it at 8,000 rpm for 10 min at 4°C to separate the plasma, which we stored at −20 °C until analysis. The plasma samples were pretreated by protein precipitation with acetonitrile and quantitated by the validated LC-MS/MS (Shimadzu Exion-Triple Quad 4500) method.
Then, four volumes of acetonitrile (containing 0.1% formic acid) were added into the pooled plasma samples to precipitate the proteins. After vortex-mixing and centrifugation, the supernatants were dried under a nitrogen stream. Then, the residues were resuspended in 100 μl of acetonitrile/water (1:1, v/v) with 0.1% formic acid. After centrifugation, the supernatants were analyzed by UPLC–UV-HRMS for metabolite identification.
The analysis was performed on Acquity UPLC system coupled with a diode array detector (Waters Corporation, United States) and Q Exactive™ Orbitrap HRMS (Thermo Electron Corporation, United States). […] The mobile phase was composed water containing 0.1% formic acid (A) and acetonitrile containing 0.1% formic acid (B). The flow rate was 0.40 ml/min. The elution conditions were the following linear gradient for metabolite identify in HLMs: 0–1 min: 95% A, 1–2 min: 80% A, 2–5 min: 80% A, 5–8 min: 70% A, 8–12 min: 30% A, 12–15 min: 5% A, 15–16 min: 95% A, and 16–18 min: 95% A. The elution conditions were the following for metabolite identify in dog plasma: 0–1 min: 95% A, 1–30 min: 70% A, 30–32 min: 30% A, 32–33 min: 5% A, 33–35 min: 95% A, and 35–40 min: 95% A.
HRMS were operated at positive ion mode using a heating electrospray ionization source (HESI). The optimized operating parameters were set as follows: sheath gas (nitrogen) flow rate of 35 psi, aux gas (nitrogen) flow rate of 10 psi, HESI and capillary temperature of 350°C, and spray voltage of 3.5 kV. The metabolites were detected by full MS/dd-MS^2 analysis from m/z 100 to m/z 1,000. The resolution of the first-class scan and second-class scan was 70 000 and 17 500, respectively. The collision energy for collision induced dissociation (NCE) was set to 20, 40 and 60 eV. The loop count was set to five and the dynamic exclusion duration to 10 s. […] Thermo Compound Discover software was used to identify expected and unknown metabolites, and we finally proposed (+)-13e metabolic pathways based on the deduced metabolites and relevant drug biotransformation knowledge.

[4] = target: T1, rat VMAT2 (Rattus norvegicus, UniProt Q01827); assay: [3H]DA uptake assay in rat striatal synaptosomes; assay type: biochemical
T1 construct: in vitro [^3H]DA uptake assay in rat striatal synaptosomes; from tissue; host or cells: rat striatal synaptosomes / vesicular suspension
Protocol: [^3H]DA (dihydroxyphenylethyethylamine, 3,4-[ring-2,5,6-^3H]; specific activity, 28.0 Ci/mmol) was purchased from Perkin Elmer. […] After drying, the filter plate was sealed with unifilter-96 back sealing tape and added 50 μl of microscint-20 (Perkin Elmer), then sealed the top of the filter plate with TopSeal-A. The radioactivity was measured by a TopCount scintillation counter. GraphPad Prism 5.0 was used to analyze data.

[5] = tested on: locomotor activity of rats; assay: Time-dependent effects on locomotor activity in rats; assay type: in vivo, rat; conditions: SD rats, 1.3 μmol/kg
Protocol: Rats were placed into the detection box after a single intragastric administration at different time points, and two rats from each group were used in each round of the experiment. The TopScan monitoring system was used to record and analyze the locomotor activity of the rats in different periods (0–1, 1–2, 3–4, 5–6, 6–7, and 7–8 h) after administration, and the RR was calculated as previously described.

[6] = tested on: dopamine receptors, serotonin receptors, adrenergic receptors, dopamine transporter, norepinephrine transporter, five serotonin transporter; assay: Multi-target activity screen of SpectrumScreen Panel (Eurofins screen); conditions: serotonin transporters, and so on
[7] = Metabolite identification in liver microsomes from humans, dogs and rats (stated across species); assay type: in vitro ADME, human, dog, rat; conditions: liver microsomes from humans, rats, and dogs
Protocol: Human, rat and dog liver microsomes were carefully thawed on ice prior to the experiment and diluted to 1 mg/ml in100 mM sodium phosphate buffer (pH 7.4) containing 10 mM magnesium chloride. […] After 3 min of preincubation at 37°C, the reactions were initiated by adding 20 µL of NADPH (20 mM) and then incubated at 37°C in a shaking water bath for 60 min. All samples were prepared in duplicates. The reactions were terminated by adding 600 µl of ice-cold acetonitrile and stored at −20°C until analysis. Control samples without NADPH and 0-time point samples were included. As a positive control, testosterone (10 µM) which was metabolized to produce the hydroxylation metabolite was used as a substrate to confirm the activity of the incubation system. Next, the samples were centrifuged at 13,000 rpm for 10 min, the supernatant was separated and evaporated to dryness under a nitrogen stream. The residue was resuspended in 100 μl of acetonitrile, after centrifugation, the supernatants were analyzed by UPLC–UV-HRMS.
The analysis was performed on Acquity UPLC system coupled with a diode array detector (Waters Corporation, United States) and Q Exactive™ Orbitrap HRMS (Thermo Electron Corporation, United States). […]
HRMS were operated at positive ion mode using a heating electrospray ionization source (HESI). […] The metabolites were detected by full MS/dd-MS^2 analysis from m/z 100 to m/z 1,000. […]

T1 sequence (Q01827 whole entry): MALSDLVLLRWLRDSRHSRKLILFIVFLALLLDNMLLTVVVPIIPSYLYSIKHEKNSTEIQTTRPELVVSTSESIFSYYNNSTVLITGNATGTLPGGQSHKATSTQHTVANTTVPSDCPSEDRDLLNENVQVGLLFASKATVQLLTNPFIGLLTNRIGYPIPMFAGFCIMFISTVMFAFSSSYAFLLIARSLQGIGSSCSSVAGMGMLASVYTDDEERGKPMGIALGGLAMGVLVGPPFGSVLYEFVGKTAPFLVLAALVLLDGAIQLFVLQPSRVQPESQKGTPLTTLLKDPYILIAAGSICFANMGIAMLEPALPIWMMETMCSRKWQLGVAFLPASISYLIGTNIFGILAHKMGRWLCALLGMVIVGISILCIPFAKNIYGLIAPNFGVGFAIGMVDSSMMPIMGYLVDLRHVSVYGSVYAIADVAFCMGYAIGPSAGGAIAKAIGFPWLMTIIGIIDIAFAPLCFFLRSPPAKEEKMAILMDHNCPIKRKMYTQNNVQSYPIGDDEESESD

COc1cc2c(cc1OCC(F)(F)F)CCN1CC(CC(C)C)C(O)CC21 (single isomer, unassigned; (+)) [(+)-13e, (+)-9-(2,2,2-trifluoroethoxy)-α-dihydrotetrabenazine]
Papp A→B at 2 h [1]: 26 to 35 ×10⁻⁶ cm/s
permeability across the Caco-2 cell monolayer [2]: high permeability
substrate of P-gp or breast cancer resistance protein (BCRP) ([2]; efflux not observed): unlikely to be a substrate
O-detrifluoroethylation at the nine position [3]: did not occur
IC90 ([4]; [3H]DA uptake, rat striatal synaptosomes): 34.1 nM
inhibitory effect on [3H]DA uptake stronger than that of HTBZ ([4]; ratio of IC50 vs HTBZ): approximately 5 fold
duration of significant inhibition of locomotor activity [5]: at least 8 h
effects in multi-target activity screen [6]: no effects
O-detrifluoroethylation at the nine position [7]: did not occur
